Experimental findings from patent US7238682B1, “Methods and compositions for degradation and/or inhibition of HER-family tyrosine kinases” (Sloan-Kettering Institute for Cancer Research, priority 1999, dated 2007) are described below.

What all share (format): cell-based, human
One experiment relates to HER2. The experiment in a line: Induction of HER2 degradation in MCF-7 cells (immunoblotting). The conditions noted are these: for IC50: MCF-7 cells, 24-hr treatment, amount of drug needed to degrade 50% of the protein, average of three experiments, read-out: IC50 (HER-2). The protocol:
(§1) The human breast cancer cell lines MCF-7 and SKBR-3 were obtained from ATCC (Rockville, Md.), and maintained in DME/F12 (1:1) supplemented with 10% heat-inactivated fetal bovine serum (Gemini Bioproducts), 2 mM glutamine, and 50 units/ml each of penicillin and streptomycin, in a humidified 5% CO2/air atmosphere at 37° C.
(§2) Polyclonal antibodies against HER2 (c-18), Raf-1 (c-12), and P13 kinase (p85) (Z-8) were purchased from Santa Cruz Biotechnology, Inc. A monoclonal antibody against estrogen receptor (clone H-151) was obtained from StressGen Biotechnology Corp. A polyclonal antibody against the β-subunit of IGF-I receptor was kindly provided by Dr. L-H, Wang (Mt. Sinai Medical Center, New York).
(§3) After exposure, cells were washed twice with ice-cold phosphate-buffered saline (PBS), collected by scraping and transferred into microcentrifuge tubes. For immunoblotting (HER2, Raf-1, ER), cells were lysed with SDS lysis buffer (50 mM Tris-HCl, pH 7.5, 2% SDS, 10% glycerol, and 1 mM DTT), boiled for 10 min, and sonicated briefly; for immunoprecipitation (IGF-IR), cells were lysed with NP40 lysis buffer (50 mM Tris-HCl, pH 7.5, 1% Nonidet P-40, 150 mM NaCl, 1 mM Na3VO4, 40 mM NaF, 1 mM phenylmethylsulfonyl fluoride (PMSF) and 10 μg/ml each of aprotinin, leupeptin and soybean trypsin inhibitor) for 20 min at 4° C. Cell lysates were cleared by centrifuging at 14,000×g for 15 min at 4° C. in a microcentrifuge; the supernatants were collected as the experimental samples. Protein concentration in each sample was determined using the BCA kit (Pierce) according to the manufacture's instructions. For detecting IGF-IR, samples were immunoprecipitated with anti-IGF-IR antibody. Immunocomplexes were collected on protein A-Sepharose beads (Pharmacia), washed three times with the lysis buffer. Samples were subjected to SDS-PAGE, electrotransferred to nitrocellulose membranes, detected using the ECL kit (Amersham) according to the manufacturer's protocol, and quantitated using the Gel Doc 1000 (Bio-Rad).
On the technique in general: A western blot detects proteins with antibodies after separation by electrophoresis.

The next experiment deals with Raf-1. Briefly: Induction of Raf-1 degradation in MCF-7 cells (immunoblotting). The following applies: for IC50: MCF-7 cells, 24-hr treatment, amount of drug needed to degrade 50% of the protein, average of three experiments. As to the method:
as §1, §2, §3

For the next experiment, the system named is MCF-7 cells. Briefly: MCF-7 cell growth inhibition (cell counting). The conditions noted are these: MCF-7 cells treated for four days, average of three experiments, read-out: IC50 (growth inh.). The protocol: as §1
For cell growth experiments, cells were placed in 6-well tissue-culture plates (Corning) at 20,000 cells/well. Two days after plating, cells were treated with different concentrations of drugs or the vehicle DMSO (0.1%). MCF-7 cells were treated for four days; medium with the appropriate drug or vehicle was changed every 2 days; cells were trypsinized, collected and counted on a Coulter counter; IC50 for cell growth is designated as the amount of each drug needed to inhibit MCF-7 growth by 50% compared to the control vehicle.

Like-named read-outs stand apart in the source and are kept apart here.

For orientation: IC50 means the midpoint of a concentration-inhibition curve. In the case of `COC1C=CC=C(C)C(=O)NC2=CC(=O)C(NCCCCCCCCCCCCNC3=C4CC(C)CC(OC)C(O)C(C)C=C(C)C(OC(N)=O)CC(OC)C=CC=C(C)C(=O)NC(=CC3=O)C4=O)=C(CC(C)CC(OC)C(O)C(C)C=C(C)C(OC(N)=O)C1)C2=O` (stereo not drawn) [12 O———O], the IC50 stood at 750 nM in the experiment with HER2; 3500 nM with Raf-1; 700 nM with MCF-7 cells (Homo sapiens, MCF7, 96 h).

In the case of `COC1C=CC=C(C)C(=O)NC2=CC(=O)C(NCCCCN)=C(CC(C)CC(OC)C(O)C(C)C=C(C)C1OC(N)=O)C2=O` (stereo not drawn) [ButylaminoGM], the IC50 worked out at 80 nM in the experiment with HER2, 350 nM with Raf-1 and 600 nM in the experiment with MCF-7 cells. In the experiment with HER2 (degradation in MCF-7 cells), the “Activity against HER2 (in words)” value is “modestly weaker than GM”. Moreover, in the experiment with HER2 (degradation in MCF-7 cells, compared to GM), the “Selectivity / specificity for HER-2 over Raf-1” value is listed as “not selective”. The “Activity against Raf-1 (in words)” value in the experiment with Raf-1 (degradation in MCF-7 cells) is listed as “modestly weaker than GM”.

With `COC1=C2C[C@@H](C)C[C@H](OC)[C@H](O)[C@@H](C)/C=C(\C)[C@H](OC(N)=O)[C@@H](OC)/C=C\C=C(/C)C(=O)NC(=CC1=O)C2=O` [GM, Geldanamycin, reference compound], the IC50 with HER2 was 45 nM; with Raf-1 it was 200 nM; with MCF-7 cells (Homo sapiens, MCF7, 96 h), 25 nM.

As for `COC1C=CC=C(C)C(=O)NC2=CC(=O)C(NCCCCCCCCCNC3=C4CC(C)CC(OC)C(O)C(C)C=C(C)C(OC(N)=O)CC(OC)C=CC=C(C)C(=O)NC(=CC3=O)C4=O)=C(CC(C)CC(OC)C(O)C(C)C=C(C)C(OC(N)=O)C1)C2=O` (stereo not drawn) [9 O———O], the IC50 in the experiment on HER2 was found to be 500 nM; with Raf-1, 3800 nM; in the experiment on MCF-7 cells (Homo sapiens, MCF7, 96 h), 700 nM.

With `COC1C=CC=C(C)C(=O)NC2=CC(=O)C(NCCCCCCCNC3=C4CC(C)CC(OC)C(O)C(C)C=C(C)C(OC(N)=O)CC(OC)C=CC=C(C)C(=O)NC(=CC3=O)C4=O)=C(CC(C)CC(OC)C(O)C(C)C=C(C)C(OC(N)=O)C1)C2=O` (stereo not drawn) [GMD-7c], the IC50 with HER2 stood at 70 nM; with Raf-1, 500 nM; with MCF-7 cells (Homo sapiens, MCF7, 96 h), 600 nM.
